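Test compounds were applied to cells in 96-well plates for 48 hours at 5 doses. TGI is the concentration that stops growth completely.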
How the values were obtained:
Assay in all cases: NCI tumour cell line growth inhibition, 48 h
OVCAR-4 ovarian = system: OVCAR-4 ovarian
OVCAR-5 ovarian = system: OVCAR-5 ovarian
SF-295 CNS = system: SF-295 CNS
SR leukemia = system: SR leukemia
RXF 393 renal = system: RXF 393 renal
TK-10 renal = system: TK-10 renal
SW-620 colon = system: SW-620 colon
HCT-15 colon = system: HCT-15 colon
CCRF-CEM leukemia = system: CCRF-CEM leukemia
BT-549 breast = system: BT-549 breast
SN12C renal = system: SN12C renal
SK-MEL-28 melanoma = system: SK-MEL-28 melanoma
T-47D breast = system: T-47D breast
SK-MEL-2 melanoma = system: SK-MEL-2 melanoma
SK-OV-3 ovarian = system: SK-OV-3 ovarian
PC-3 prostate = system: PC-3 prostate
HS 578T breast = system: HS 578T breast
EKVX NSCLC = system: EKVX NSCLC
UACC-62 melanoma = system: UACC-62 melanoma
M14 melanoma = system: M14 melanoma
HL-60(TB) leukemia = system: HL-60(TB) leukemia
NCI-H226 lung = system: NCI-H226 lung
MCF7 breast = system: MCF7 breast
MOLT-4 leukemia = system: MOLT-4 leukemia
OVCAR-3 ovarian = system: OVCAR-3 ovarian
HT29 colon = system: HT29 colon
A549 NSCLC = system: A549 NSCLC
DU-145 prostate = system: DU-145 prostate
NCI-H23 lung = system: NCI-H23 lung
COLO 205 colon = system: COLO 205 colon
SNB-19 CNS = system: SNB-19 CNS
SNB-75 CNS = system: SNB-75 CNS
U251 CNS = system: U251 CNS
HCT-116 colon = system: HCT-116 colon
HOP-92 NSCLC = system: HOP-92 NSCLC
MALME-3M melanoma = system: MALME-3M melanoma
LOX IMVI melanoma = system: LOX IMVI melanoma
HCC-2998 colon = system: HCC-2998 colon
MDA-N = system: MDA-N
MDA-MB-231 breast = system: MDA-MB-231 breast
SF-539 CNS = system: SF-539 CNS
SF-268 CNS = system: SF-268 CNS
ACHN renal = system: ACHN renal
HOP-62 NSCLC = system: HOP-62 NSCLC
RPMI-8226 leukemia = system: RPMI-8226 leukemia
CAKI-1 renal = system: CAKI-1 renal
NCI-H460 lung = system: NCI-H460 lung
MDA-MB-435 = system: MDA-MB-435
786-0 renal = system: 786-0 renal
SK-MEL-5 melanoma = system: SK-MEL-5 melanoma
KM12 colon = system: KM12 colon
NCI/ADR-RES ovarian = system: NCI/ADR-RES ovarian
UO-31 renal = system: UO-31 renal
UACC-257 melanoma = system: UACC-257 melanoma
IGROV1 ovarian = system: IGROV1 ovarian
K-562 leukemia = system: K-562 leukemia
OVCAR-8 ovarian = system: OVCAR-8 ovarian

Measured: TGI

Cc1cc(NS(=O)(=O)c2ccc(NC(NC(=O)C(C(F)(F)F)C(F)(F)F)(C(F)(F)F)C(F)(F)F)cc2)no1
> 100 µM: all assays above

From PubChem BioAssay (NCI)
